≈ marks a conversion by molar mass, not a printed value. Read-outs that look alike come from different tables or passages of the source.
Columns and labels:
Mtb [1] = assay: microbe, parasite or virus in culture; assay type: cell-based, Mycobacterium tuberculosis; settings: Mycobacterium tuberculosis, read-out: MIC (III)
Mtb [2] = assay: microbe, parasite or virus in culture; assay type: cell-based, Mycobacterium tuberculosis; settings: Mycobacterium tuberculosis, read-out: MIC (I)
in vitro = settings: African green monkey

| SMILES | MIC (Mtb [1]) [µg/mL] | MIC (Mtb [2]) [µg/mL] | CC50 (in vitro) [µg/mL] |
| --- | --- | --- | --- |
| CCOC(=O)NC(=O)c1cc(CC(=O)O)sc1NC(=O)c1nc2cnccc2s1 [Compound 308] | > 25 | > 3 | < 25 |
| CCOC(=O)NC(=O)c1ccsc1NC(=O)c1sc2ccccc2c1Cl [Compound 88] | 5 to 25 (≈ 12.2 to 61.1 µM) | < 1 | > 50 |
| CCOC(=O)NC(=O)c1cc(F)sc1NC(=O)c1ccc2nccn2n1 [Compound 387] | > 25 | 1 to 3 (≈ 2.65 to 7.95 µM) | < 25 |
| O=C(NC(=O)c1ccsc1NC(=O)c1cnc2ccnn2c1)OCc1ccc(F)cc1 [Compound 284] | > 25 | > 3 | 25 to 50 (≈ 56.9 to 114 µM) |
| CCOC(=O)NC(=O)c1ccsc1NC(=O)c1cn2c(n1)sc1ccccc12 [Compound 292] | > 25 | > 3 | > 50 |
| O=C(Nc1sccc1C(=O)N1CCN(c2ccccc2)CC1)c1nc2ccccc2s1 [Compound 258] | > 25 | > 3 | > 50 |
| C=CCOC(=O)NC(=O)c1ccsc1NC(=O)c1nc2ccccc2s1 [Compound 293] | < 5 | < 1 | < 25 |
| CC(C)OC(=O)NC(=O)c1cc(F)sc1NC(=O)c1nc2ncccc2s1 [Compound 391] | > 25 | < 1 | < 25 |
| CC(C)OC(=O)NC(=O)c1ccsc1NC(=O)/C=C/c1nc2ccccc2s1 [Compound 366] | 5 to 25 (≈ 12 to 60.2 µM) | < 1 | < 25 |
| CCOC(=O)NC(=O)c1ccsc1NC(=O)c1cnc2ccsc2c1 [Compound 394] | > 25 | < 1 | < 25 |
| CCOC(=O)NC(=O)c1ccsc1NC(=O)c1ccnc(NC(=O)C(C)(C)C)n1 [Compound 118] | 5 to 25 (≈ 11.9 to 59.6 µM) | > 3 | > 50 |
| O=C(NC(=O)c1ccsc1NC(=O)c1nc2ccccc2s1)OC1COC1 [Compound 35] | > 25 | < 1 | < 25 |
| CCOC(=O)NC(=O)c1ccsc1NC(=O)C1COc2ccc(OC)cc2C1 (stereo not drawn) [Compound 71] | < 5 | 1 to 3 (≈ 2.47 to 7.42 µM) | > 50 |
| CC(C)OC(=O)NC(=O)c1cc(F)sc1NC(=O)c1nc2cnccc2s1 [Compound 104] | < 5 | < 1 | < 25 |
| COCCOC(=O)NC(=O)c1ccsc1NC(=O)c1nc2cnccc2s1 [Compound 103] | > 25 | < 1 | > 50 |
| CCOC(=O)NC(=O)c1ccsc1NC(=O)c1cc(C)nc2ccccc12 [Compound 122] | > 25 | > 3 | > 50 |
| CCOC(=O)NC(=O)c1ccsc1NC(=O)c1ccc2scnc2c1 [Compound 43] | 5 to 25 (≈ 13.3 to 66.6 µM) | < 1 | > 50 |
| CCOC(=O)NC(=O)c1ccsc1NC(=O)c1nc2c(N3CCOCC3)ccnc2s1 [Compound 247] | 5 to 25 (≈ 10.8 to 54.2 µM) | < 1 | 25 to 50 (≈ 54.2 to 108 µM) |
| CCOC(=O)NC(=O)c1ccsc1NC(=O)c1cc(OC)c2ccccc2n1 [Compound 114] | > 25 | > 3 | > 50 |
| O=C(NC(=O)c1ccsc1NC(=O)c1nc2cnccc2s1)OCc1ccc(F)cc1 [Compound 275] | > 25 | > 3 | 25 to 50 (≈ 54.8 to 110 µM) |
| CCOC(=O)NC(=O)c1ccsc1NC(=O)c1ccc2cccnc2c1 [Compound 63] | 5 to 25 (≈ 13.5 to 67.7 µM) | < 1 | > 50 |

| SMILES | MIC (Mtb [1]) [µg/mL] | MIC (Mtb [2]) [µg/mL] | CC50 (in vitro) [µg/mL] |
| --- | --- | --- | --- |
| O=C(NC(=O)c1ccsc1NC(=O)c1nc2ccccc2s1)OCc1ccccc1C(F)(F)F [Compound 294] | > 25 | > 3 | 25 to 50 (≈ 49.5 to 98.9 µM) |
| CCOC(=O)NC(=O)c1ccsc1NC(=O)c1cc2nc(C)cc(C)n2n1 [Compound 121] | > 25 | > 3 | > 50 |
| CCOC(=O)NC(=O)c1ccsc1NC(=O)c1cc2cccnc2s1 [Compound 332] | > 25 | < 1 | > 50 |
| CCOC(=O)NC(=O)c1ccsc1NC(=O)c1nc2c(N(C)C)ccnc2s1 [Compound 268] | > 25 | < 1 | > 50 |
| CC(C)COC(=O)NC(=O)c1ccsc1NC(=O)c1cnc2ccnn2c1 [Compound 283] | > 25 | 1 to 3 (≈ 2.58 to 7.74 µM) | 25 to 50 (≈ 64.5 to 129 µM) |
| CCOC(=O)NC(=O)c1ccsc1NC(=O)c1ccc2ncoc2c1 [Compound 75] | > 25 | > 3 | > 50 |
| CCOC(=O)NC(=O)c1ccsc1NC(=O)c1nc(C(F)(F)F)cs1 [Compound 144] | > 25 | > 3 | > 50 |
| CCOC(=O)NC(=O)c1ccsc1NC(=O)c1ccc2sc(N3CCN(C)CC3)nc2c1 [Compound 59] | 5 to 25 (≈ 10.6 to 52.8 µM) | < 1 | > 50 |
| CCOC(=O)NC(=O)c1ccsc1NC(=O)c1cnc2ccccc2c1 [Compound 264] | 5 to 25 (≈ 13.5 to 67.7 µM) | < 1 | < 25 |
| CCOC(=O)NC(=O)c1ccsc1NC(=O)c1ccc2nccn2n1 [Compound 77] | > 25 | 1 to 3 (≈ 2.78 to 8.35 µM) | > 50 |
| CCOC(=O)NC(=O)c1ccsc1NC(=O)c1cn2c(C)cccc2n1 [Compound 290] | > 25 | > 3 | > 50 |
| CC(C)(C)C(=O)Nc1cc(C(=O)Nc2sccc2C(=O)NC(=O)OCCN2CCOCC2)ccn1 [Compound 32] | > 25 | > 3 | > 50 |
| CC(C)OC(=O)NC(=O)c1ccsc1NC(=O)c1cnc2ccsc2c1 [Compound 395] | > 25 | < 1 | < 25 |
| O=C(Nc1sccc1C(=O)NC1CCNCC1)c1nc2ccccc2s1 [Compound 259] | > 25 | > 3 | > 50 |
| CCOC(=O)NC(=O)c1ccsc1NC(=O)c1cccc2cccnc12 [Compound 112] | > 25 | > 3 | > 50 |
| CCOC(=O)NC(=O)c1ccsc1NC(=O)c1cnc2ccccn12 [Compound 142] | > 25 | > 3 | 25 to 50 (≈ 69.8 to 140 µM) |
| CCOC(=O)NC(=O)c1ccsc1NC(=O)c1cc2ccccn2c1 [Compound 310] | > 25 | > 3 | > 50 |
| CCOC(=O)NC(=O)c1ccsc1NC(=O)c1ccc2sc(N3CCOCC3)nc2c1 [Compound 58] | 5 to 25 (≈ 10.9 to 54.3 µM) | < 1 | > 50 |
| CCOC(=O)NC(=O)c1ccsc1NC(=O)c1cccc2ncccc12 [Compound 139] | > 25 | > 3 | > 50 |
| CCOC(=O)NC(=O)c1ccsc1NC(=O)C1CCc2ccccc2N1 (stereo not drawn) [Compound 143] | 5 to 25 (≈ 13.4 to 66.9 µM) | > 3 | > 50 |
| CCOC(=O)NC(=O)c1ccsc1NC(=O)c1cn2cccc(C#N)c2n1 [Compound 124] | < 5 | > 3 | > 50 |

| SMILES | MIC (Mtb [1]) [µg/mL] | MIC (Mtb [2]) [µg/mL] | CC50 (in vitro) [µg/mL] |
| --- | --- | --- | --- |
| O=C(NC(=O)c1cc(F)sc1NC(=O)c1nc2ccccc2s1)OCCN1CCOCC1 [Compound 388] | > 25 | < 1 | < 25 |
| CCOC(=O)NC(=O)c1ccsc1NC(=O)c1ccnc(NC(=O)N2CCCCC2)c1 [Compound 51] | > 25 | < 1 | 25 to 50 (≈ 56.1 to 112 µM) |
| CC(C)OC(=O)NC(=O)c1cc(F)sc1NC(=O)c1cc2ncccn2n1 [Compound 345] | > 25 | < 1 | 25 to 50 (≈ 63.9 to 128 µM) |
| O=C(NC(=O)c1ccsc1NC(=O)c1cnc2ccnn2c1)OCc1ccccc1C(F)(F)F [Compound 289] | > 25 | > 3 | < 25 |
| CCOC(=O)NC(=O)c1ccsc1NC(=O)c1c(C)nc2ccc(C)cn12 [Compound 336] | > 25 | > 3 | 25 to 50 (≈ 64.7 to 129 µM) |
| CC(C)OC(=O)NC(=O)c1cc(F)sc1NC(=O)c1cn2ccccc2n1 [Compound 339] | > 25 | < 1 | 25 to 50 (≈ 64 to 128 µM) |
| CCOC(=O)NC(=O)c1ccsc1NC(=O)c1cc2ccc(Cl)cc2s1 [Compound 333] | 5 to 25 (≈ 12.2 to 61.1 µM) | < 1 | 25 to 50 (≈ 61.1 to 122 µM) |
| CCC(OC(=O)NC(=O)c1ccsc1NC(=O)c1cnc2ccnn2c1)c1ccccc1 (stereo not drawn) [Compound 306] | > 25 | > 3 | < 25 |
| CN1CCCN(C(=O)c2ccsc2NC(=O)c2nc3ccccc3s2)CC1 [Compound 254] | > 25 | > 3 | > 50 |
| COC(=O)NC(=O)c1ccsc1NC(=O)c1nc2cnccc2s1 [Compound 314] | > 25 | > 3 | 25 to 50 (≈ 69 to 138 µM) |
| CCOC(=O)NC(=O)c1ccsc1NC(=O)c1nc2cccnc2s1 [Compound 83] | < 5 | < 1 | > 50 |
| CCOC(=O)NC(=O)c1ccsc1NC(=O)c1cc(O)nc2ccccc12 [Compound 115] | > 25 | > 3 | > 50 |
| CCOC(=O)NC(=O)c1ccsc1NC(=O)c1ccc(=O)n(C)c1 [Compound 140] | 5 to 25 (≈ 14.3 to 71.6 µM) | > 3 | > 50 |
| CCOC(=O)NC(=O)c1ccsc1NC(=O)c1ccc2cccnc2n1 [Compound 69] | < 5 | < 1 | < 25 |
| CCOC(=O)NC(=O)c1ccsc1NC(=O)c1cc(NC(=O)C(C)(C)C)ncn1 [Compound 36] | > 25 | 1 to 3 (≈ 2.38 to 7.15 µM) | > 50 |
| CC(C)OC(=O)NC(=O)c1cc(F)sc1NC(=O)c1cnc2ccnn2c1 [Compound 316] | > 25 | 1 to 3 (≈ 2.56 to 7.67 µM) | 25 to 50 (≈ 63.9 to 128 µM) |
| CCOC(=O)NC(=O)c1ccsc1NC(=O)c1cnc2ccoc2c1 [Compound 353] | > 25 | 1 to 3 (≈ 2.78 to 8.35 µM) | 25 to 50 (≈ 69.6 to 139 µM) |
| CCOC(=O)NC(=O)c1cc(F)sc1NC(=O)c1ccn2nccc2c1 [Compound 343] | > 25 | < 1 | < 25 |
| CCOC(=O)NC(=O)c1ccsc1NC(=O)c1cc(O)ncn1 [Compound 147] | > 25 | > 3 | > 50 |
| CCOC(=O)NC(=O)c1ccsc1NC(=O)/C=C/c1nc2ccccc2s1 [Compound 365] | > 25 | < 1 | < 25 |
